Test results taken from patent US20260327263A1, “Anti-Bacterial Peptides” (priority 2023, published 2026).
≈ marks a conversion by molar mass, not a printed value. Where “and” joins values, the source holds several entries; their conditions need not be identical. Identical values can stand only once. Like-named read-outs stand apart in the source and are kept apart here. Where a SMILES comes first, the peptide text is derived from it. Where no end group is shown, it is not given here. [ ]: non-standard residue; d: D form. Aib = CC(C)(N)C(=O)O

Assays:
[1] = system: mixed bacterial infection (PA, SA and ST); test: Broth microdilution, mixed bacterial infection; assay type: cell-based
Experimental: Chronic wounds mostly present mixed infections where numerous pathogens colonize together.
(§1) Examination of the potency of modified short peptides against PA and SA strains was performed by using the broth microdilution protocol from the Clinical and Laboratory Standards Institute (CLSI) guidelines (CLSI 2012) as described. Briefly, five freshly plated bacteria colonies were grown in cation adjusted MH2 broth (BD Biosciences) in a shaker incubator at 37° C., 220 RPM. Cells were grown to an optical density (OD600) of ~0.2 measured using a Microplate Spectrophotometer (Molecular Devices Spectra Max Plus). 100 μL of microbial culture containing ~5×10^5 CFU/mL of bacteria in the respective broths were introduced into each well containing 100 μL of peptides and incubated overnight at 37° C. Next, to check the bactericidal effects, 100 μL from each well was transferred and spread on sterile MH2 agar plates. The plates were incubated overnight at 37° C. and the number of colonies forming units (CFU) were calculated the following day. Readings of bacteria grown in media without any treatments were normalized to 100% as media control. For the mixed infection study, three freshly plated bacteria colonies each from PA, SA and ST plates were grown together in cation adjusted MH2 broth and proceeded as described above.

[2] = system: Pseudomonas aeruginosa (PA); test: Antimicrobial resistance evolution assay, PA; assay type: cell-based; settings: for development of antimicrobial resistance, PA: serial passaging, 28 days, resistance = >4-fold MIC change
From the text: The development of antimicrobial resistance is defined by greater than a 4-fold change to their initial minimum inhibitory concentration (MIC) at day 1. Exemplary bacteria strains Pseudomonas aeruginosa (PA) and Staphylococcus aureus (SA) are subjected to continuous daily serial passaging over several days, with treatment of exemplary variant peptides E1AM2 (SEQ ID NO: 2) and Q19L (SEQ ID NO: […]) at subinhibitory concentrations. […] The treatments were discontinued when the MIC increased by more than four-fold from the initial MIC or when MIC reached >100 μM.
Briefly, sequential passaging of PA, and SA cells was done with sub-inhibitory concentrations of antibiotics or E1AM2 up to 4 weeks. The cells grown in those concentrations of antibiotics or peptides were diluted to A600 nm (OD600) of ~0.2 and serially passaged daily with the same concentrations at 37° C. with agitation at 24 h intervals.

[3] = system: Pseudomonas aeruginosa PA CRM-9027; test: Broth microdilution, PA CRM-9027 (ear-eye infections); assay type: cell-based, Pseudomonas aeruginosa (CRM-9027); settings: Pseudomonas aeruginosa, PACRM9027
Experimental: (§2) Bacteria strains involved in lung infection in cystic fibrosis patients (PA-BAA 2110) and ear-eye infections (PA-CRM 9027) are treated with exemplary variant peptides, such as E1AM2 and Q19L.
as §1

[4] = system: Staphylococcus aureus (SA); test: Broth microdilution anti-bacterial assay (CLSI), Staphylococcus aureus; assay type: cell-based
Experimental: (§3) To evaluate their anti-bacterial potency, broth microdilution method as per the CLSI guidelines 1 was used. […] The anti-bacterial potency of the tested agents is quantified using minimum inhibitory concentration (MIC) and minimum bactericidal concentration (MBC). […] To obtain the MBC data, 1X, 2X and 4× MIC of the peptide variants were plated to obtain the number of viable colonies compared to the original inoculum.
(§4) Pseudomonas aeruginosa (ATCC 14213, PA), and methicillin resistant Staphylococcus aureus (BAA1717-USA 300, SA) were obtained from The American Type Culture Collection (ATCC).
as §1

[5] = system: Pseudomonas aeruginosa (PA); test: Broth microdilution anti-bacterial assay (CLSI), Pseudomonas aeruginosa; assay type: cell-based, Pseudomonas aeruginosa (ATCC 14213)
Experimental: as §3, §4, §1

[6] = system: Pseudomonas aeruginosa PA BAA-2110; test: Broth microdilution, PA BAA-2110 (lung infection in cystic fibrosis); assay type: cell-based, Pseudomonas aeruginosa (BAA-2110); settings: Pseudomonas aeruginosa, BAA2110
Experimental: as §2, §1

[7] = SA, overnight, 37° C., ≥99% inhibition
[8] = PA, overnight, 37° C., ≥99% inhibition

Molecule	MBC ([1]; mixed infection)	development of antimicrobial resistance, PA [2]	MBC [3] [µM]	MIC [3] [µM]	MBC ([4]; Staphylococcus aureus) [µM]	MIC ([4]; Staphylococcus aureus) [µM]	MBC ([5]; Pseudomonas aeruginosa) [µM]	MIC ([5]; Pseudomonas aeruginosa) [µM]	MIC [1] [µM]	MBC [6] [µM]	MIC [6] [µM]	MIC [4, 7] [µM]	MBC ([4]; SA, ≥99% killing) [µM]	MIC [5, 8] [µM]	MBC ([5]; PA, ≥99% killing) [µM]	MIC ([1]; mixed infection) [µM]	AMR prevention / resistance induction ([2]; Table 15: in PA and SA, bacteria not named)
O=C(O)c1cn(C2CC2)c2cc(N3CCNCC3)c(F)cc2c1=O [Ciprofloxacin, 1-cyclopropyl-6-fluoro-4-oxo-7-(piperazin-1-yl)-quinoline-3-carboxylic acid]	25 µM (≈ 8.28 µg/mL)	developed resistance															
CCN1CCN(C(=O)N[C@@H](C(=O)N[C@@H]2C(=O)N3[C@@H]2SC(C)(C)[C@@H]3C(=O)O)c2ccccc2)C(=O)C1=O [Piperacillin, (2S,5R,6R)-6-{[(2R)-2-[(4-ethyl-2,3-dioxo-piperazine-1-carbonyl)amino]-2-phenyl-acetyl]amino}-3,3-dimethyl-7-oxo-4-thia-1-azabicyclo[3.2.0]heptane-2-carboxylic acid]	25 µM (≈ 12.9 µg/mL)	developed resistance	6.25 (≈ 3.23 µg/mL)	6.25 (≈ 3.23 µg/mL)	12.5 (≈ 6.47 µg/mL)	6.25 (≈ 3.23 µg/mL)	50 (≈ 25.9 µg/mL)	25 (≈ 12.9 µg/mL)	25 (≈ 12.9 µg/mL)	25 (≈ 12.9 µg/mL)	12.5 (≈ 6.47 µg/mL)						
KKLLKKWVKLSKKALKLAQSL-NH2 [E1AM2-NH2]	6.25 µM											6.25	12.5	3.125	6.25	6.25	
CO/N=C(\C(=O)N[C@@H]1C(=O)N2C(C(=O)[O-])=C(C[N+]3(C)CCCC3)CS[C@H]12)c1csc(N)n1 [Cefepime]	12.5 µM (≈ 6.01 µg/mL)	developed resistance	1.56 (≈ 0.75 µg/mL)	1.56 (≈ 0.75 µg/mL)	25 (≈ 12 µg/mL)	12.5 (≈ 6.01 µg/mL)	25 (≈ 12 µg/mL)	12.5 (≈ 6.01 µg/mL)	12.5 (≈ 6.01 µg/mL)	25 (≈ 12 µg/mL)	12.5 (≈ 6.01 µg/mL)						
CN[C@@H]1[C@@H](O)C(O[C@@H]2[C@@H](O)[C@H](O[C@H]3O[C@H]([C@@H](C)NC)CC[C@H]3N)[C@@H](N)C[C@H]2N)OC[C@]1(C)O (stereo partly drawn) [Gentamicin, (3R,4R,5R)-2-{[(1S,2S,3R,4S,6R)-4,6-diamino-3-{[(2R,3R,6S)-3-amino-6-[(1R)-1-(methylamino)ethyl]oxan-2-yl]oxy}-2-hydroxycyclohexyl]oxy}-5-methyl-4-(methylamino) oxane-3,5-diol]	6.25 µM and 6.26 µM	developed resistance	12.5 (≈ 5.97 µg/mL)	6.25 (≈ 2.99 µg/mL)	3.25 (≈ 1.55 µg/mL)	1.56 (≈ 0.745 µg/mL)	6.25 (≈ 2.99 µg/mL)	3.12 (≈ 1.49 µg/mL)	3.12 (≈ 1.49 µg/mL)	25 (≈ 11.9 µg/mL)	25 (≈ 11.9 µg/mL)						induced resistance development in bacteria
CC(C)C[C@H](NC(=O)[C@H](CO)NC(=O)[C@H](CC(C)C)NC(=O)[C@H](C)NC(=O)[C@H](CC(C)C)NC(=O)[C@H](CCCCN)NC(=O)[C@H](CC(C)C)NC(=O)C(C)(C)NC(=O)[C@H](CCCCN)NC(=O)[C@H](CCCCN)NC(=O)[C@H](CO)NC(=O)[C@H](CC(C)C)NC(=O)[C@H](CCCCN)NC(=O)[C@H](CC(C)C)NC(=O)[C@H](Cc1c[nH]c2ccccc12)NC(=O)[C@H](CCCCN)NC(=O)[C@H](CCCCN)NC(=O)[C@H](CC(C)C)NC(=O)[C@H](CC(C)C)NC(=O)[C@H](CCCCN)NC(=O)[C@@H](N)CCCCN)C(N)=O [V8LQ19LA14Aib] (H-KKLLKKWLKLSKK[Aib]LKLALSL-NH2)												3.125 (≈ 7.7 µg/mL)	6.25 (≈ 15.4 µg/mL)	3.126 (≈ 7.7 µg/mL)	6.25 (≈ 15.4 µg/mL)		
KKLLKKLLKLSKKALKLALSL-NH2 [W7LV8LQ19L]												1.58	1.58	3.125	3.125		
